BindingDB's records for patent WO2022021841 (Sichuan University, 2022)

Target: Replicase polyprotein 1ab (Severe acute respiratory syndrome coronavirus 2, UniProt P0DTD1)
Assay: SARS-CoV-2 Coronavirus 3C Protease FRET Assay
Procedure: IC50 values were calculated by fitting a curve of Vmax to experimental values with the controls (DMSO) as the top and bottom limits of the curve. […] GraphPad Prism is the analysis tool for all measurements.

Row | SMILES | Ki [nM]
1 | O=C(NCc1ccccn1)C(=O)[C@H](C[C@@H]1CCNC1=O)NC(=O)C1[C@@H]2CCC[C@H]2CN1C(=O)COc1ccc(Cl)cc1Cl (stereo not given in full) [WO2022021841, 53] | 63100
2 | CC(C)(CCc1ccc(Cl)c(F)c1)C(=O)N1C[C@@H]2CCC[C@H]2C1C(=O)N[C@H](C=O)C[C@@H]1CCNC1=O (stereo not given in full) [WO2022021841, 63] | 26
3 | COc1ccc(OC(C)C(=O)N2C[C@@H]3CCC[C@H]3C2C(=O)N[C@H](C=O)C[C@@H]2CCNC2=O)cc1 (stereo not given in full) [WO2022021841, 29] | 78
4 | CC1(C)CNC(=O)[C@@H]1C[C@@H](C=O)NC(=O)C1[C@@H]2CCC[C@H]2CN1C(=O)COc1ccc(Cl)cc1Cl (stereo not given in full) [WO2022021841, 54] | 24
5 | CC1(C)[C@@H]2C(C(=O)N[C@H](C=O)C[C@@H]3CCNC3=O)N(C(=O)c3ccc4ccccc4c3)C[C@@H]21 (stereo not given in full) [WO2022021841, 16] | 343
6 | O=C[C@H](C[C@@H]1CCNC1=O)NC(=O)C1[C@@H]2CCC[C@H]2CN1C(=S)NCc1cccc(F)c1 (stereo not given in full) [WO2022021841, 59] | 37
7 | COc1cc(OCC(=O)N2C[C@H]3[C@@H](C2C(=O)N[C@H](C=O)C[C@@H]2CCNC2=O)C3(C)C)cc(OC)c1OC (stereo not given in full) [WO2022021841, 35] | 51
8 | CC1CNC(=O)[C@@H]1C[C@H](NC(=O)C1[C@@H]2CCC[C@H]2CN1C(=O)COc1ccc(OC(F)(F)F)cc1)C(=O)CF (stereo not given in full) [WO2022021841, 80] | 23
9 | O=C(NC1CC1)C(=O)[C@H](C[C@@H]1CCNC1=O)NC(=O)C1[C@@H]2CCC[C@H]2CN1C(=O)COc1ccc(Cl)cc1Cl (stereo not given in full) [WO2022021841, 52] | 875
10 | CC(C)(OCc1ccc(F)cc1F)C(=O)N1C[C@@H]2CCC[C@H]2C1C(=O)N[C@H](C=O)C[C@@H]1CCNC1=O (stereo not given in full) [WO2022021841, 62] | 40
11 | COc1ccc(CCC(=O)N2C[C@@H]3CCC[C@H]3C2C(=O)N[C@H](C=O)C[C@@H]2CCNC2=O)cc1 (stereo not given in full) [WO2022021841, 76] | 51
12 | COc1cccc(CCC(=O)N2C[C@@H]3CCC[C@H]3C2C(=O)N[C@H](C=O)C[C@@H]2CCNC2=O)c1 (stereo not given in full) [WO2022021841, 78] | 68
13 | CC1(C)[C@@H]2C(C(=O)N[C@H](C=O)C[C@@H]3CCNC3=O)N(C(=O)COc3ccc4c(c3)OCO4)C[C@@H]21 (stereo not given in full) [WO2022021841, 21] | 73
14 | O=C[C@H](C[C@@H]1CCNC1=O)NC(=O)C1[C@@H]2CCC[C@H]2CN1C(=O)CCc1cccc(O)c1 (stereo not given in full) [WO2022021841, 73] | 31
15 | O=C(NCc1ccccc1)C(=O)[C@H](C[C@@H]1CCNC1=O)NC(=O)C1[C@@H]2CCC[C@H]2CN1C(=O)COc1ccc(Cl)cc1Cl (stereo not given in full) [WO2022021841, 51] | 50400
16 | O=C[C@H](C[C@@H]1CCNC1=O)NC(=O)C1[C@@H]2CCC[C@H]2CN1C(=O)CCc1ccc(O)c(O)c1 (stereo not given in full) [WO2022021841, 75] | 41
17 | O=C[C@H](C[C@@H]1CCNC1=O)NC(=O)C1[C@@H]2CCC[C@H]2CN1C(=O)CCc1ccc(Cl)cc1Cl (stereo not given in full) [WO2022021841, 67] | 40
18 | CC1CNC(=O)[C@@H]1C[C@@H](C=O)NC(=O)C1[C@@H]2CCC[C@H]2CN1C(=O)COc1cccc(-c2ccccc2)c1 (stereo not given in full) [WO2022021841, 47] | 12
19 | O=C[C@H](C[C@@H]1CCNC1=O)NC(=O)C1[C@@H]2CCC[C@H]2CN1C(=O)CCc1ccc(Cl)c(Cl)c1 (stereo not given in full) [WO2022021841, 68] | 35
20 | CC1CNC(=O)[C@@H]1C[C@H](NC(=O)C1[C@H]2CCC[C@H]2CN1C(=O)COc1cccc(-c2ccccc2)c1)C(=O)CF (stereo not given in full) [WO2022021841, 5] | 11

Row | SMILES | Ki [nM]
21 | O=C[C@H](C[C@@H]1CCNC1=O)NC(=O)C1[C@@H]2CCC[C@H]2CN1C(=O)CCc1cc(Cl)cc(Cl)c1 (stereo not given in full) [WO2022021841, 64] | 33
22 | CC(C)(C)C(NCc1ccc(Cl)cc1Cl)C(=O)N1C[C@@H]2CCC[C@H]2C1C(=O)N[C@H](C=O)C[C@@H]1CCNC1=O (stereo not given in full) [WO2022021841, 61] | 39
23 | O=C(N[C@@H](C[C@@H]1CCNC1=O)C(=O)CCl)C1[C@@H]2CCC[C@H]2CN1C(=O)COc1ccc(Cl)cc1Cl (stereo not given in full) [WO2022021841, 42] | 19
24 | O=C[C@H](C[C@@H]1CCNC1=O)NC(=O)C1[C@@H]2CCC[C@H]2CN1C(=O)C(F)(F)Oc1ccc(Cl)cc1Cl (stereo not given in full) [WO2022021841, 71] | 40
25 | COc1cccc(OCC(=O)N2C[C@H]3[C@@H](C2C(=O)N[C@H](C=O)C[C@@H]2CCNC2=O)C3(C)C)c1 (stereo not given in full) [WO2022021841, 23] | 37
26 | CC1(C)CNC(=O)[C@@H]1C[C@@H](C=O)NC(=O)C1[C@H]2[C@H](CN1C(=O)COc1ccc(Cl)cc1Cl)C2(C)C (stereo not given in full) [WO2022021841, 55] | 31
27 | CC(C)(Oc1ccc(Cl)cc1Cl)C(=O)N1Cc2ccccc2CC1C(=O)N[C@H](C=O)C[C@@H]1CCNC1=O (stereo not given in full) [WO2022021841, 38] | 91
28 | COc1ccc(CCC(=O)N2C[C@@H]3CCC[C@H]3C2C(=O)N[C@H](C=O)C[C@@H]2CCNC2=O)c(Cl)c1 (stereo not given in full) [WO2022021841, 77] | 56
29 | CC1CNC(=O)[C@@H]1C[C@H](NC(=O)C1[C@@H]2[C@H](CN1C(=O)COc1ccc(Cl)c(Cl)c1)C2(C)C)C(=O)CF (stereo not given in full) [WO2022021841, 7] | 15
30 | CCC[C@@H](NC(=O)C1C2[C@H](CN1C(=O)[C@@H](c1ccccc1)C(C)C)C2(C)C)C(=O)C(=O)NC1CC1 (stereo not given in full) [WO2022021841, 13] | 82700
31 | CCC[C@@H](NC(=O)C1[C@@H]2CCC[C@H]2CN1C(=O)[C@@H](c1ccccc1)C(C)C)C(=O)C(=O)NC1CC1 (stereo not given in full) [WO2022021841, 12] | 16900
32 | O=C[C@H](C[C@@H]1CCNC1=O)NC(=O)C1[C@@H]2CCC[C@H]2CN1C(=O)CCc1ccc(F)c(F)c1 (stereo not given in full) [WO2022021841, 25] | 16
33 | CC(C)(Oc1ccc(Cl)cc1Cl)C(=O)N1C[C@@H]2CCC[C@H]2C1C(=O)N[C@H](C=O)C[C@@H]1CCNC1=O (stereo not given in full) [WO2022021841, 39] | 33
34 | CC1CNC(=O)[C@@H]1C[C@H](NC(=O)C1[C@H]2[C@H](CN1C(=O)COc1ccc(OC(F)(F)F)cc1)C2(C)C)C(=O)CF (stereo not given in full) [WO2022021841, 79] | 65
35 | O=C[C@H](C[C@@H]1CCNC1=O)NC(=O)C1[C@@H]2CCC[C@H]2CN1C(=O)C(F)Oc1ccc(Cl)cc1Cl (stereo not given in full) [WO2022021841, 72] | 31
36 | O=C[C@H](C[C@@H]1CCNC1=O)NC(=O)C1[C@@H]2CCC[C@H]2CN1C(=S)NCc1ccc(F)cc1 (stereo not given in full) [WO2022021841, 58] | 30
37 | COC(=O)C[C@H](NC(=O)[C@@H]1CCCN1C(=O)c1cc2ccccc2[nH]1)C(=O)CF [WO2022021841, 1] | 1100
38 | CC1CNC(=O)[C@@H]1C[C@H](NC(=O)C1[C@@H]2[C@H](CN1C(=O)COc1ccc(Cl)cc1Cl)C2(C)C)C(=O)CF (stereo not given in full) [WO2022021841, 6] | 9
39 | CC(C)(C)NC(=O)C(=O)[C@H](C[C@@H]1CCNC1=O)NC(=O)C1[C@@H]2CCC[C@H]2CN1C(=O)COc1ccc(Cl)cc1Cl (stereo not given in full) [WO2022021841, 50] | 1190
40 | COc1ccc(OCC(=O)N2C[C@H]3[C@@H](C2C(=O)N[C@H](C=O)C[C@@H]2CCNC2=O)C3(C)C)cc1 (stereo not given in full) [WO2022021841, 32] | 36

Row | SMILES | Ki [nM]
41 | CC(C)(C)C(NC(=O)Cc1ccc(Cl)cc1Cl)C(=O)N1C[C@@H]2CCC[C@H]2C1C(=O)N[C@H](C=O)C[C@@H]1CCNC1=O (stereo not given in full) [WO2022021841, 60] | 33
42 | COc1ccc(CNC(=O)N2C[C@@H]3CCC[C@H]3C2C(=O)N[C@H](C=O)C[C@@H]2CCNC2=O)cc1 (stereo not given in full) [WO2022021841, 57] | 26
43 | O=C[C@H](C[C@@H]1CCNC1=O)NC(=O)C1[C@@H]2CCC[C@H]2CN1C(=O)CCc1ccc(Cl)cc1 (stereo not given in full) [WO2022021841, 65] | 44
44 | CC1CNC(=O)[C@@H]1C[C@@H](C=O)NC(=O)C1[C@@H]2CCC[C@H]2CN1C(=O)C(C)(C)Oc1ccc(Cl)cc1Cl (stereo not given in full) [WO2022021841, 41] | 56
45 | O=C[C@H](C[C@@H]1CCNC1=O)NC(=O)C1[C@@H]2CCC[C@H]2CN1C(=O)CCc1ccc(O)cc1 (stereo not given in full) [WO2022021841, 74] | 51
46 | O=C[C@H](C[C@@H]1CCNC1=O)NC(=O)C1[C@@H]2CCC[C@H]2CN1C(=O)CCc1cccc(Cl)c1 (stereo not given in full) [WO2022021841, 66] | 36
47 | C[C@H](OCc1ccccc1)C(=O)N1C[C@@H]2CCC[C@@H]2C1C(=O)N[C@H](C=O)C[C@@H]1CCNC1=O (stereo not given in full) [WO2022021841, 18] | 28
48 | CC1CNC(=O)[C@@H]1C[C@@H](C=O)NC(=O)C1[C@@H]2[C@H](CN1C(=O)COc1ccc(Cl)c(Cl)c1)C2(C)C (stereo not given in full) [WO2022021841, 48] | 11
49 | O=C[C@H](C[C@@H]1CCNC1=O)NC(=O)C1[C@@H]2CCC[C@H]2CN1C(=O)COc1ccc2c(c1)OCCO2 (stereo not given in full) [WO2022021841, 22] | 93
50 | O=C[C@H](C[C@@H]1CCNC1=O)NC(=O)C1[C@@H]2CCC[C@H]2CN1C(=O)/C=C/c1ccc(Cl)cc1Cl (stereo not given in full) [WO2022021841, 70] | 81
51 | CC1(C)[C@@H]2C(C(=O)N[C@H](C=O)Cc3ccccc3)N(C(=O)c3ccc4ccccc4c3)C[C@@H]21 (stereo not given in full) [WO2022021841, 10] | 585
52 | O=C[C@H](C[C@@H]1CCNC1=O)NC(=O)C1[C@@H]2CCC[C@H]2CN1C(=O)COc1cccc(-c2ccccc2)c1 (stereo not given in full) [WO2022021841, 46] | 10
53 | CC(Oc1ccc(Cl)cc1Cl)C(=O)N1C[C@@H]2CCC[C@H]2C1C(=O)N[C@H](C=O)C[C@@H]1CCNC1=O (stereo not given in full) [WO2022021841, 69] | 107
54 | O=C(N[C@@H](C[C@@H]1CCNC1=O)C(=O)CF)C1[C@H]2CCC[C@H]2CN1C(=O)COc1ccc(Cl)cc1Cl (stereo not given in full) [WO2022021841, 3] | 18
55 | CC1CNC(=O)[C@@H]1C[C@H](NC(=O)C1[C@@H]2[C@H](CN1C(=O)COc1cccc(-c3ccc(Cl)cc3)c1)C2(C)C)C(=O)CF (stereo not given in full) [WO2022021841, 8] | 17
56 | CC1(C)[C@H]2CN(C(=O)COc3ccc(Cl)cc3Cl)C(C(=O)N[C@H](C=O)C[C@H]3C(=O)NCC3(F)F)[C@@H]21 (stereo not given in full) [WO2022021841, 56] | 33
57 | CCC[C@@H](NC(=O)C1[C@@H]2CCC[C@H]2CN1C(=O)c1cc2ccccc2[nH]1)C(=O)C(=O)NC1CC1 (stereo not given in full) [WO2022021841, 11] | 960
58 | CC1(C)[C@@H]2C(C(=O)N[C@H](C=O)Cc3ccccc3)N(C(=O)c3ccc4ccccc4n3)C[C@@H]21 (stereo not given in full) [WO2022021841, 9] | 24200
59 | CC1CNC(=O)[C@@H]1C[C@@H](C=O)NC(=O)C1[C@@H]2[C@H](CN1C(=O)COc1cccc(-c3ccc(Cl)cc3)c1)C2(C)C (stereo not given in full) [WO2022021841, 49] | 22
60 | CC1CNC(=O)[C@@H]1C[C@H](NC(=O)C1[C@H]2CCC[C@H]2CN1C(=O)COc1ccc(Cl)cc1Cl)C(=O)CF (stereo not given in full) [WO2022021841, 4] | 12
